Measurements published in paper PMC4742234, “Screening of Drug Metabolizing Enzymes for the Ginsenoside Compound K In Vitro: An Efficient Anti-Cancer Substance Originating from Panax Ginseng” (PLoS ONE, 2016).
Where “and” joins values, the source holds several entries; their conditions need not be identical. Equal entries are not always repeated.

Legend:
[1] = target: CYP2C9 (Homo sapiens, UniProt P11712); assay: Metabolic clearance rate of CK with recombinant CYP2C9 under sulfaphenazole; assay type: in vitro ADME; parameters: purchased Cypex Ltd. (U.K.); details: recombinant CYP2C9, CK 50 μM, sulfaphenazole 1 μM
Chain of CYP2C9 (P11712 whole entry, canonical isoform): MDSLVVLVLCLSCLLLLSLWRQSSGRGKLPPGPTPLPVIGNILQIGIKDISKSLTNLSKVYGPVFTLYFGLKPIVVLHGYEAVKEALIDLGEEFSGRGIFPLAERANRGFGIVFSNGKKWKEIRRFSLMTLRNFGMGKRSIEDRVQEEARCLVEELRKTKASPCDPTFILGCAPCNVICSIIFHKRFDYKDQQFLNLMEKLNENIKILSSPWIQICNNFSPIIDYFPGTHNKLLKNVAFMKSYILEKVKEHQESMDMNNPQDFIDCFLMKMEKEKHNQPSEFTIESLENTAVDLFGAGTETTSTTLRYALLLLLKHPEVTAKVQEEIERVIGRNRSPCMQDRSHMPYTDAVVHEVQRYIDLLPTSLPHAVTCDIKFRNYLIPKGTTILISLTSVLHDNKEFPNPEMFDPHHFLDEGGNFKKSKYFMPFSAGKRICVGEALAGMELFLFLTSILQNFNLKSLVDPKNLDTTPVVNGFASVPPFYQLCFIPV
Description: The method was conducted according to our previous study with some modifications. The CYP isoform-specific probe reactions used were phenacetin O-deethylation (for CYP1A2), coumarin 7-hydroxylation (for CYP2A6), tolbutamide 4-hydroxylation (for CYP2C9), metoprolol α-hydroxylation (for CYP2D6), chlorzoxazone 6-hydroxylation (for CYP2E1),S-Mephenytoin 4-hydroxylation (for CYP2C19), and midazolam 1-hydroxylation (for CYP3A4). The kinetic study of CK was conducted with HLMs. A 0.2 mL incubation mixture that consisted of CK (as a substrate), the HLMs (0.5 mg/mL) or CYP isoforms (10 pmol), and 0.1 M sodium phosphate buffer (pH 7.4) was pre-warmed for 5 min at 37°C. The reaction was initiated by the addition of 1 mg/mL triphosphopyridine nucleotide (NADPH). […]
To screen the specific CYP isoform responsible for the CK metabolism, we determined the inhibitory effect of specific inhibitors on the metabolism of CK in the HLMs as described in detail previously. […] The inhibitory effects of the above specific inhibitors on the metabolic clearance rate of CK were evaluated separately to screen the CYP isoforms responsible for the CK metabolism. The relative activity of the CYP isoforms was calculated by dividing the peak area of CK when incubated with the inhibitor by that of CK from the negative controls. […]

[2] = target: CYP3A4 (Homo sapiens, UniProt P08684); assay: Inhibition of CYP3A4 (midazolam 1-hydroxylation) by CK in HLMs; assay type: in vitro ADME; parameters: tissue Cypex Ltd. (U.K.); host or cells: pooled human liver microsomes
Chain of CYP3A4 (P08684 whole entry, canonical isoform): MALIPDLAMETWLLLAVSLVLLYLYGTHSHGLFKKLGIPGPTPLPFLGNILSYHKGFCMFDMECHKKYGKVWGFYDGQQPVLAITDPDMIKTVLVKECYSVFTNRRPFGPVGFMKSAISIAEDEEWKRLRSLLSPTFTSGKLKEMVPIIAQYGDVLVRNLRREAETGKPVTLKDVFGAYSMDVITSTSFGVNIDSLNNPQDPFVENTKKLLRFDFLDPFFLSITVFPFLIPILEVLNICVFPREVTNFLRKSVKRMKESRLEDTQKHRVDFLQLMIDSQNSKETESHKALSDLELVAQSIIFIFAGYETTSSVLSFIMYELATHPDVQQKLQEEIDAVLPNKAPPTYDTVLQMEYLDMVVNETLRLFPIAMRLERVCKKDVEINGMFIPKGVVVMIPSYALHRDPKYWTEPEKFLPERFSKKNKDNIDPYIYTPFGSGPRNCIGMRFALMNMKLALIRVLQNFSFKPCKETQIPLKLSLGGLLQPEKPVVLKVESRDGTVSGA
Description: The method was conducted according to our previous study with some modifications. The CYP isoform-specific probe reactions used were phenacetin O-deethylation (for CYP1A2), coumarin 7-hydroxylation (for CYP2A6), tolbutamide 4-hydroxylation (for CYP2C9), metoprolol α-hydroxylation (for CYP2D6), chlorzoxazone 6-hydroxylation (for CYP2E1),S-Mephenytoin 4-hydroxylation (for CYP2C19), and midazolam 1-hydroxylation (for CYP3A4). The kinetic study of CK was conducted with HLMs. A 0.2 mL incubation mixture that consisted of CK (as a substrate), the HLMs (0.5 mg/mL) or CYP isoforms (10 pmol), and 0.1 M sodium phosphate buffer (pH 7.4) was pre-warmed for 5 min at 37°C. The reaction was initiated by the addition of 1 mg/mL triphosphopyridine nucleotide (NADPH). All the reagents were dissolved in methanol, and the final solvent concentration in all incubations (including the controls) was 1%. The final incubations were performed in a shaking water bath (37°C) for 30 min. The reactions were stopped by adding 0.2 mL ice-cold acetonitrile, which contains irbesartan (114.9 ng/mL) as the internal standard. The samples were vortexed for 5 min. After centrifugation (12000×g for 10 min), the supernatants were transferred, and aliquots of 20 μL were injected into the HPLC-MS/MS system for analysis.
CK (10–100 μM) and a single CYP isoform-specific substrate (with a concentration similar to its corresponding Kmvalue) were used to determine the inhibitory effect of CK on specific CYP isoforms as described in detail previously. Substrates including phenacetin, coumarin, tolbutamide, metoprolol, chlorzoxazone, S-Mephenytoin, and midazolam were used at concentrations of 10, 5, 100, 7.5, 40, 100, and 5 μM, respectively. All incubation conditions were the same as mentioned above. The inhibitory effects on the CYP isoforms were investigated individually by incubating the HLMs in the absence or presence of CK. The incubation solution with the solvent that was used to dissolve CK was regarded as the negative control, and the solutions containing the specific inhibitors mentioned above were considered the positive controls.
The inhibition data obtained from the pilot experiments were used as a guide to generate the appropriate probe substrate and test inhibitor concentrations for the determination of the Ki values for each CYP isoform. The isoform-specific probe substrate concentrations used were 25–200 μM tolbutamide for CYP2C9 and 5–50 μM midazolam for CYP3A4. The CK concentrations used were 10–100 μM.
When Ki>Ki’, the intersection was above the [I] axis in the plot of S/V against [I] and below it in the Dixon plot; the opposite was true if Ki<Ki’. In the special case where Ki = Ki’ (simple non-competitive inhibition), the intersections occurred on the [I] axis in both plots. The asymptotic cases of competitive and uncompetitive inhibition can be generated by inserting the conditions Ki’ to ∞ for competitive inhibition, or Ki to ∞ for uncompetitive inhibition.
As described in detail previously, to determine the major enzymes responsible for the CK metabolism in HLMs, the metabolic clearance rate of the incubation solution without any specific inhibitor for CK was considered as 100%. The effects of the specific inhibitors on the metabolic clearance rate of CK were evaluated with SPSS one-way analysis of variance (SPSS Inc., Chicago, IL, USA). P<0.05 was considered significant in all cases. The apparent kinetic parameters of CK (Km and Vmax) were determined by fitting the Michaelis–Menten equation using the GraphPad Prism Enzyme Kinetic 5 Demo software (GraphPad Co. Ltd, San Diego, CA, USA).

[3] = CYP3A4 in HLMs, ketoconazole values ref 17

Compound: CC(C)=CCC[C@](C)(OC1O[C@H](CO)[C@@H](O)[C@H](O)[C@H]1O)[C@H]1CC[C@]2(C)[C@@H]1[C@H](O)C[C@@H]1[C@@]3(C)CC[C@H](O)C(C)(C)[C@@H]3CC[C@]12C (stereo partly drawn) [CK, 20-O-β-(D-glucopyranosyl)-20(S)-protopanaxadiol]
- MCR of CK, of that of the control [1]: 22.0%
- IC50 of CK higher than that of ketoconazole [2, 3]: 41-123 fold
- Ki of CK higher than that of ketoconazole [2, 3]: 761 fold
- type of inhibition of CYP3A4 ([2]; HLMs, Dixon and S/V versus [I] plots): noncompetitive
- IC50 ([2]; HLMs, midazolam 1-hydroxylation, midazolam 5 μM, CK 10–100 μM): 9.83 µM and 9.82 µM
- Ki ([2]; HLMs, midazolam 5–50 μM, secondary plot of Lineweaver–Burk slopes): 11.4 µM
- inhibitor potency class for CYP3A4 ([2]; classified by IC50 according to Kong et al): potent (potent, if IC50≤ 20 μg/mL or ≤10 μM)
